Data published in paper PMC12254266, “Multicolored sequential resonance energy transfer for detection of simultaneous ligand binding at G protein-coupled receptors” (Nature Communications, 2025).
Where “and” joins values, the source holds several entries; their conditions need not be identical. Equal values may be shown once.

Tests used:
Nluc-FFA1 = target: T1, Nluc-FFA1 (Homo sapiens, UniProt O14842); test: NanoBRET binding (saturation, competition, kinetics) at N terminal Nluc tagged FFA1; conditions: for Specific BRET (690/450)%: Figure 4Ci; for Specific BRET (690/450)% / Specific BRET (540/450)%: technical duplicates; for Specific BRET (540/450)%: Figure 4Cii
T1 construct: expressed in transfected cells
T1 sequence (O14842 whole entry): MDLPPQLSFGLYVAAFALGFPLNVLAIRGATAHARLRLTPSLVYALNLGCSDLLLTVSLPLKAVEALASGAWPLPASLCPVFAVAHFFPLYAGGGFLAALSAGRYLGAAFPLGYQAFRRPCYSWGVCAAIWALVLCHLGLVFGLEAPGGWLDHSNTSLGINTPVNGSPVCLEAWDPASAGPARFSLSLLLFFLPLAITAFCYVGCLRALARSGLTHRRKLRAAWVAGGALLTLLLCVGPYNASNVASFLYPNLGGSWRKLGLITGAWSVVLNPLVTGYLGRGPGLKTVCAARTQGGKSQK

FFA1 [1] = target: T2, FFA1 (Homo sapiens, UniProt O14842); test: NanoBiT arrestin-3 recruitment in HEK293T cells; type: cell-based; design: expressed in transfected cells; host or cells: HEK293T, transient; conditions: for Arrestin recruitment (% TUG-905): technical duplicate
T2 sequence (O14842 whole entry, the tested form may be a part): as the sequence (O14842 whole entry) above
Method: For arrestin-3 recruitment assays, HEK293T cells were transfected with FFA1 receptor and a bystander NanoBiT split luciferase arrestin-3 recruitment biosensor. Cells were transfected and plated simultaneously in a reverse transfection protocol into a poly-D-lysine coated white 96-well plate. Per well, 60,000 cells were transfected with 5 ng plasmid expressing LgBiT with a N-terminal Lyn11 plasma membrane localisation tag, 5 ng plasmid expressing bovine arrestin-3 fused at its N-terminal to SmBiT tag and 30 ng plasmid expressing the human FFA1 receptor. Total DNA was made up to 100 ng total/well with empty pcDNA3 vector and transfected to cell suspension with 0.6 µg/well PEI. Following transfection cells were cultured for 24 h before use. On the day of assay, cells were washed twice with HBSS and incubated in HBSS for 30 min at 37 °C. NanoGlo substrate was added at a final 1:800 dilution and incubated in the dark for 10 min at 37 °C. […] Raw luminescence values were divided by baseline signal (average of first 5 data points prior to compound addition) and vehicle measurements subtracted from agonist treatment. Area under curves were calculated and concentration response curves plotted.

FFA1 [2] = target: T2, FFA1; test: Ca2+ mobilisation (Fura2) in Flp-In T-REx 293 cells expressing Nluc-FFA1, FFA1-Nluc or untagged FFA1; type: cell-based; design: expressed in transfected cells; conditions: for Ca2+ Response as a % of T360 Response: single technical replicates
Outline: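 520 nm emission read at 340 and 380 nm excitation over 90 s spanning compound addition. Response taken as peak 340/380 ratio after subtracting pre-addition ratios.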

In the case of COc1ccc(C(=O)N(CC(C)(C)C)c2cccc(C)n2)c(N2CCC(COc3cccc(C(CC(=O)O)C4CC4)c3)CC2)c1.O=C(O)C(F)(F)F (stereo not shown) [Cpd 6h, reference compound], the “Specific BRET (690/450)%” value (Nluc-FFA1; log[Ligand] -5) is reported as 154.01% and 159.82% and 184.44% and 164.18% and 149.89% and 140.91%, the “Specific BRET (690/450)%” value (Nluc-FFA1; log[Ligand] -5.5) is reported as 149.18% and 149.96% and 186.01% and 169.50% and 140.81% and 140.26% and the “Specific BRET (690/450)%” value (Nluc-FFA1; log[Ligand] -6) is reported as 148.97% and 147.78% and 172.23% and 173.39% and 141.21% and 145.62%. The “Specific BRET (690/450)%” value (Nluc-FFA1; log[Ligand] -6.5) was 146.95% and 143.16% and 174.27% and 175.78% and 147.71% and 149.19%, the “Specific BRET (690/450)%” value (Nluc-FFA1; log[Ligand] -7) was 142.54% and 138.75% and 174.07% and 180.89% and 144.33% and 137.24% and the “Specific BRET (690/450)%” value (Nluc-FFA1; log[Ligand] -8) was 121.15% and 120.06% and 152.10% and 144.46% and 121.71% and 120.62%. The “Specific BRET (690/450)%” value (Nluc-FFA1; log[Ligand] -9) was 105.22% and 101.22% and 121.39% and 115.73% and 104.79% and 106.52%, the “Specific BRET (690/450)%” value (Nluc-FFA1; log[Ligand] -10) was 100.55% and 99.45% and 103.65% and 96.35% and 96.40% and 103.60% and the “Specific BRET (540/450)%” value (Nluc-FFA1; log[Ligand] -7) was 19.25% and 26.02% and 25.79% and 30.80% and 33.39% and 36.04%. For the same compound, the “Specific BRET (540/450)%” value (Nluc-FFA1; log[Ligand] -8) was 119.18% and 117.93% and 79.82% and 76.64% and 93.10% and 100.29%, the “Specific BRET (540/450)%” value (Nluc-FFA1; log[Ligand] -9) was 109.78% and 127.71% and 86.42% and 90.20% and 105.18% and 118.46% and the “Specific BRET (540/450)%” value (Nluc-FFA1; log[Ligand] -10) was 94.36% and 105.64% and 98.39% and 101.61% and 82.28% and 117.72%. For the same compound, the “'bottom' of the IC50 curve fit, Nano-BRET TUG-2591” value (Nluc-FFA1; percentage of binding in the absence of competing ligand, tracer TUG-2591 100 nM) was 160%, the “'bottom' of the IC50 curve fit, Nano-BRET TUG-2597” value (Nluc-FFA1; percentage of binding in the absence of competing ligand, tracer TUG-2597 […]) was -16% and the “pIC50 Nano-BRET TUG-2597” value (Nluc-FFA1; tracer TUG-2597 […], NBD/Nluc) was 7.2±0.03. The “pKi Nano-BRET TUG-2597” value (Nluc-FFA1; using Kd TUG-2597 380 nM) was 7.5±0.03, the “Arrestin recruitment (% TUG-905)” value (FFA1 [1]; log[ligand] -6) was 78.0249 % TUG-905 and 64.444 % TUG-905 and 40.7503 % TUG-905 and 51.9792 % TUG-905 and 61.8079 % TUG-905 and 63.543 % TUG-905 and the “Arrestin recruitment (% TUG-905)” value (FFA1 [1]; log[ligand] -6.5) was 82.3608 % TUG-905 and 53.7805 % TUG-905 and 51.6658 % TUG-905 and 54.0552 % TUG-905 and 67.7023 % TUG-905 and 49.6983 % TUG-905. For the same compound, the “Arrestin recruitment (% TUG-905)” value (FFA1 [1]; log[ligand] -7.5) was 66.0536 % TUG-905 and 57.1103 % TUG-905 and 48.5714 % TUG-905 and 47.0829 % TUG-905 and 58.219 % TUG-905 and 65.2186 % TUG-905, the “Arrestin recruitment (% TUG-905)” value (FFA1 [1]; log[ligand] -8) was 69.0414 % TUG-905 and 63.7801 % TUG-905 and 51.8356 % TUG-905 and 46.0645 % TUG-905 and 48.8783 % TUG-905 and 52.0275 % TUG-905 and the “EMax (% TUG-905) arrestin-3 recruitment” value (FFA1 [1]; percentage of the response to 10 μM TUG-905, ± SEM) was 54 ± 6%. For the same compound, the “pEC50 arrestin-3 recruitment” value (FFA1 [1]; ± SEM, N=3) was 9.1 ±0.1, the pEC50 (FFA1 [2]; Ca2+ data, mean±SEM, NR = No response) was 7.58±0.37 and the “Ca2+ Response as a % of T360 Response” value (FFA1 [2]; log[Ligand] -5) was 84.6341% and 118.5422% and 131.5391% and 131.6815%. For the same compound, the “Ca2+ Response as a % of T360 Response” value (FFA1 [2]; log[Ligand] -5.5) was 110.3362% and 90.2944% and 104.2328% and 116.7691% and 104.8460% and 102.3011%, the “Ca2+ Response as a % of T360 Response” value (FFA1 [2]; log[Ligand] -6) was 71.8152% and 70.2762% and 114.0711% and 118.1782% and 101.8675% and 96.5850% and the “Ca2+ Response as a % of T360 Response” value (FFA1 [2]; log[Ligand] -6.5) was 60.3759% and 123.2785% and 113.4233% and 101.5371% and 93.1451%. The “Ca2+ Response as a % of T360 Response” value (FFA1 [2]; log[Ligand] -7) was 63.1956% and 51.7459% and 118.1727% and 120.9922% and 92.4678% and 86.2833%, the “Ca2+ Response as a % of T360 Response” value (FFA1 [2]; log[Ligand] -8) was 10.9661% and -4.3988% and 87.5826% and 74.3785% and 6.7799% and 2.9748% and the “Ca2+ Response as a % of T360 Response” value (FFA1 [2]; log[Ligand] -9) was -2.3895% and -2.3898% and 3.1637% and 3.9796% and -0.4916% and 4.7706%. For the same compound, the EMax (FFA1 [2]; percentage of response to 10 μM T360, NR = No response) was 108±8%.
